Measured values from patent US20260159474A1, “Aminoindane Compounds and Compositions and Methods of Their Therapeutic Use” (Solvonis Therapeutics Ireland Holdings Limited, priority 2021, published 2026).

Experiment: Plasma protein binding by equilibrium dialysis, rat plasma
Type: in vitro ADME
Details: for Rat Plasma (Fu %): fraction unbound, 0.5 μM; for fraction unbound at 5 h, 0.5 μM: male, Sprague Dawley, rat, plasma, pH 7.4, read-out: Rat Plasma (Fu %)
Procedure: Methods: Plasma protein binding and blood tissue binding of test items (0.5 μM) was determined using biological samples from male Sprague Dawley (SD) rats and humans. […] Dexamethasone was used as a control compound for lung tissue binding. Various biological samples were spiked with test compounds according to the methods that follow.
Preparation of plasma or blood samples: An appropriate amount of test compound was dissolved in DMSO to yield a 10 mM solution. Further dilutions, to obtain 50 μM working solutions (WS), were then prepared using 50% acetonitrile in Milli-Q water. These 100×WS were used to spike plasma or blood to obtain a final concentration of 0.5 μM. From this initial spiking solution, control samples (n=3), referred to as T=0, were immediately extracted and used to calculate the recovery of the test item.
An equilibrium dialysis method was performed to determine protein binding in the various biological samples described herein. Materials were prepared and methods were in accordance with the following procedures.
Membranes were prepared for use in the equilibrium dialysis experiment. by soaking in deionized water for at least 60 minutes. After this period, 20% of pure ethanol was added, and the membranes were left in this solution for at least 20 minutes. The membranes were then rinsed in Milli-Q water prior to use.
To initiate the experiment, 150 μL of test item-free buffer (isotonic phosphate buffer for plasma and blood, artificial CSF buffer for brain or HBSS buffer for lung) was dispensed on one half-well of a 96-well dialyzer apparatus (HTDialysis LLC), and 150 μL of spiked matrix (plasma, blood, brain or lung) was loaded on the other half-well. Alternative volumes may be used according to the operating instructions of HTDialysis.
Dialysis buffer was prepared by dissolving Na2HPO4 8.69 g, KH2PO4 1.90 g, and NaCl 4.11 g in […] of MilliQ water, and adjusting the pH to 7.4 with H3PO4. At the end of the equilibration period (device is sealed and incubated under shaking for 5 hours at 37° C.), 50 μL of dialysed matrix will be added to 50 μL of corresponding test item free dialysed buffer, and vice versa for buffer, such that the volume of buffer to matrix will be the same. Samples were extracted by protein precipitation with 300 μL of acetonitrile containing rolipram (for positive ionization mode) or diclofenac (for negative ionization mode) as internal standard and centrifuged for 10 minutes at 2800 rpm. […]
Samples were then injected onto an HPLC MS/MS or UPLC MS/MS system. In order to control the integrity of the membrane after the dialysis process, the presence of protein was assessed in the buffer compartment. […]
Samples were analyzed in a LC-MS/MS system using an analytical method to monitor the compound to internal standard peak area ratios as representative of the compound concentrations. Alternatively, samples were analyzed by RapidFire.
Protein binding in plasma, blood, brain, and lung tissue samples were determined with the following formula: Afu=Buffer/x, wherein “x” may be plasma, blood, brain, or lung, and “Afu” is the apparent fraction unbound, and the other variables refer to the analyte/internal standard ratio determined in their specific compartment (buffer, plasma, blood, brain homogenate, and lung homogenate); Fucr-(1/D)/[(1/Afu)-1+(1/D)], wherein fucr is the fraction unbound corrected, D is the matrix dilution factor (D=1 for plasma, 2 for blood, 3 for brain, 7 for lung). % Binding=(1−fucr)×100 and % Unbound=100—% Bound. […]

SMILES	Rat Plasma (Fu %)	fraction unbound at 5 h, 0.5 μM
COC(=O)c1cc2c(cc1OC)CC(N)C2 (centres unmarked) [CMP-401]	Low	
COC(=O)c1ccc2c(c1)CC(N)C2 (centres unmarked) [CMP-405, 2-aminoindane-5-methylcarboxylate]	high binding in plasma specimens and Low	
CNC(C)Cc1ccc2c(c1)OCO2 (centres unmarked) [MDMA]	>50%	
COc1ccc2c(c1)CC(N)C2 (centres unmarked) [MEAI, 5-methoxy-2-aminoindane]		> 0.5
COc1cc2c(cc1C)CC(N)C2 (centres unmarked) [MMAI, 5-methoxy-6-methyl-2-aminoindane]		> 0.5
